Reference: patent US6479662B2, “Antitumor dibenzofluorene derivatives” (Board of Regents, The University of Texas System, priority 1998, dated 2002)
“Also recorded” adds a separate entry of the source.

How the values were obtained:
[1] = tested on: six to eight cultured tumor cell lines; assay: In vitro cytotoxicity against the panel of tumor lines (overall activity grouping); format: cell-based, human and/or animal; details: for change in activity relative to Tx-38 (in words): structural modification of Tx-38; for change in activity relative to Tx-37 (in words): structural modification of Tx-37; for anti-tumor activity (in words): summary over the tumor lines; for activity group: grouped as determined by the majority of the results over all tumor lines
Method: (§1) Every dibenzofluorene derivative was tested, as will be described below, against six to eight cultured, tumor cell lines of human and/or animal origin, at least half of which were selected from the NCI panel of test tumors. In each experiment, Adriamycin (ADR) was used as a maximally positive control.
(§2) Data are IC50 values (MTT assay) reported as μg/ml for 72 hours continuous exposure to the drug. Drugs were prepared in DMSO:PEG300 (1:1). Further, dilutions were made in a cell culture medium with fetal bovine serum.
Additional tumor lines against which the drugs were tested in certain series included L1210 (leukemia), PC3 (prostate) and several others.
(§3) Compounds were evaluated for solubility characteristics in vehicles which would be appropriate for use in cell culture. The compounds were added to the cell lines under continuous culture for 72 hours. Inhibition of growth relative to control cell culture was determined by the MTT method at the end of 72 hours. This is a test of the relative ability of a compound to inhibit cell growth not survival. However, inhibition of growth may reflect cell death and/or cytostasis.
ADR invariably produced the described anti-tumor effect against all tumor lines at concentrations lower than 1 μg/ml of culture media. The effect of the Tx-compounds was divided into five activity groups as described below. In all cases, if activity against a single tumor line differed radically from that against all others, notation was made of this specificity but the agent was grouped as determined by the majority of the results.

[2] = tested on: OVCAR 3 human ovarian carcinoma; assay: In vitro cytotoxicity, MTT assay, 72 h continuous exposure; format: cell-based; details: average over runs, value above 50 = 50% inhibition not achieved at 50 μg/ml
Method: as §1, §2, §3

BRO human melanoma = assay: as above; format: cell-based; details: average over runs, value above 50 = 50% inhibition not achieved at 50 μg/ml
Method: as §1, §2, §3

[3] = tested on: HL-60 human promyelocytic leukemia; assay: as above; format: cell-based; details: average over runs, value above 50 = 50% inhibition not achieved at 50 μg/ml
Method: as §1, §2, §3

[4] = tested on: P388/0 murine lymphatic leukemia; assay: as above; format: cell-based; details: average over runs, value above 50 = 50% inhibition not achieved at 50 μg/ml
Method: as §1, §2, §3

[5] = tested on: MCF-7 human breast carcinoma; assay: as above; format: cell-based; details: average over runs, value above 50 = 50% inhibition not achieved at 50 μg/ml
Method: as §1, §2, §3

[6] = tested on: HT-29 human colon adenocarcinoma; assay: as above; format: cell-based; details: average over runs, value above 50 = 50% inhibition not achieved at 50 μg/ml
Method: as §1, §2, §3

Row | Compound | change in activity relative to Tx-38 (in words) [1] | average IC50 OVCAR-3 [2] | average IC50 BRO (BRO human melanoma) | average IC50 HL-60 [3] | average IC50 P388/0 [4] | average IC50 MCF-7 [5] | change in activity relative to Tx-37 (in words) [1] | anti-tumor activity (in words) [1] | average IC50 HT-29 [6] | activity group [1] | IC50 ([1]; Homo sapiens, all tumor lines, μg/ml of culture media, positive control, read-out: concentration producing the described anti-tumor effect against all tumor lines)
1 | O=C(CCC(=O)N1CCCCC1)Nc1cc2c(c3ccccc13)-c1ccc3ccccc3c1C2O (centres unmarked) [Tx-67] | greatly increased the activity | 8.8 µg/mL | 14.7 µg/mL | 5.6 µg/mL | 9.2 µg/mL | 8.9 µg/mL | – | – | – | – | –
2 | O=C(CCC(=O)N1CCCCC1)Nc1ccc2c(c1)Cc1ccccc1-2 [Tx-69] | – | – | – | – | 41.5 µg/mL | 28.9 µg/mL | – | – | – | – | –
3 | CN1CCN(C(=O)CCC(=O)Nc2cc3c(c4ccccc24)-c2ccc4ccccc4c2C3=O)CC1 [Tx-50] | – | 6.6 µg/mL | 11.2 µg/mL | 4.0 µg/mL | 3.7 µg/mL | 18.1 µg/mL | slight diminution in activity | significant activities | 10.0 µg/mL | – | –
4 | O=C(CCC(=O)N1CCCCC1)Nc1cc2c(c3ccccc13)-c1ccc3ccccc3c1C2=O [Tx-51] | – | 16.2 µg/mL | 47.2 µg/mL | 32.0 µg/mL | – | 27.0 µg/mL | – | little or no activity | – | – | –
5 | CN1CCN(C(=O)C=CC(=O)Nc2cc3c(c4ccccc24)-c2ccc4ccccc4c2C3)CC1 [Tx-47] | – | 1.1 µg/mL | 1.2 µg/mL | 1.2 µg/mL | 15.4 µg/mL | 20.2 µg/mL | reduced its activity significantly | – | 16.7 µg/mL | GROUP C (These agents were effective against one-third to one-half of all tumor lines tested at levels less than 10 μg/ml) | –
6 | COc1cccc2c1C(=O)c1c(O)c3c(c(O)c1C2=O)C[C@@](O)(C(=O)CO)C[C@@H]3O[C@H]1C[C@H](N)[C@H](O)[C@H](C)O1 [ADR, Adriamycin, reference compound] | – | – | – | – | – | – | – | – | – | – | < 1 µg/mL
7 | O=C(C=CC(=O)N1CCCCC1)Nc1cc2c(c3ccccc13)-c1ccc3ccccc3c1C2 [Tx-48, N-[11′-13′H-Dibenzo[a,g]-fluorenyl]-4-(1′-piperidinyl)-but-2-ene-1,4-dicarboxiamide] | little or no change | 23.4 µg/mL | 22.6 µg/mL | 30.1 µg/mL | – | 18.3 µg/mL | – | – | – | – | –
8 | CN1CCN(C(=O)CCC(=O)Nc2cc3c(c4ccccc24)-c2ccc4ccccc4c2C3O)CC1 (centres unmarked) [Tx-66] | – | 4.2 µg/mL | 6.0 µg/mL | 2.0 µg/mL | 2.1 µg/mL | 5.9 µg/mL | minor change in the activity | – | – | – | –
9 | CN1CCN(C(=O)CCC(=O)Nc2cc3c(c4ccccc24)-c2ccc4ccccc4c2C3)CC1 [Tx-37, N-[11′-(13′H-Dibenzo[a,g]-fluorenyl)]-4-(4′N methyl-piperazinyl)-butane-1,4-dicarboxiamide] | – | 1.9 µg/mL | 1.8 µg/mL | 1.6 µg/mL | 2.0 µg/mL | 3.0 µg/mL | – | consistent, highly positive effects; also recorded: most active compound; also recorded: significant activities | 1.9 µg/mL | – | –
10 | O=C(CCC(=O)N1CCCCC1)Nc1cc2c(c3ccccc13)-c1ccc3ccccc3c1C2 [Tx-38] | – | 39.5 µg/mL | 46.4 µg/mL | 14.9 µg/mL | 42.9 µg/mL | 22.8 µg/mL | – | no significant anti-tumor activity; also recorded: little or no activity | 34.4 µg/mL | – | –
11 | CN1CCN(C(=O)CCC(=O)Nc2ccc3c(c2)Cc2ccccc2-3)CC1 [Tx-68, N-[2′-(9′H-fluorenyl)]-4-(4′N methyl-piperazinyl)-butane-1,4-dicarboxiamide] | – | 31.7 µg/mL | – | – | – | 18.2 µg/mL | – | – | – | GROUP E (These agents produced some anti-tumor effect at doses above 10 μg/ml but less than 20 μg/ml) | –
12 | CN1CCN(C(=O)CCC(=O)Nc2cc3c(c4ccccc24)-c2ccc4ccccc4c2C3)CC1.Cl [Tx-49, N-[11′-(13′H-Dibenzo[a,g]-fluorenyl)]-4-(4′N methyl-piperazinyl hydrochloride)-butane-1,4-dicarboxiamide] | – | 2.8 µg/mL | 2.5 µg/mL | 2.5 µg/mL | 3.1 µg/mL | 5.7 µg/mL | minor change in the activity | – | 2.5 µg/mL | – | –
